Experimental data as given in ChEMBL document CHEMBL4699460, “Integrating DNA-encoded chemical libraries with virtual combinatorial library screening: Optimizing a PARP10 inhibitor” (Bioorg Med Chem Lett, 2020).

Experiments:
[1] = biological target: T1, Protein mono-ADP-ribosyltransferase PARP11 (Homo sapiens) (UniProt Q9NR21); test: (§1) Inhibition of N-terminal GST tagged human PARP11 (8 to 338 residues) expressed in baculovirus infected Sf9 cells assessed as reduction in NAD+-dependent ADP ribosylation using histone as substrate at 10 uM incubated for 1 hr in presence of biotinylated NAD+ and activated DNA by chemiluminescence based microplate reader assay relative to control
T1 sequence (whole entry): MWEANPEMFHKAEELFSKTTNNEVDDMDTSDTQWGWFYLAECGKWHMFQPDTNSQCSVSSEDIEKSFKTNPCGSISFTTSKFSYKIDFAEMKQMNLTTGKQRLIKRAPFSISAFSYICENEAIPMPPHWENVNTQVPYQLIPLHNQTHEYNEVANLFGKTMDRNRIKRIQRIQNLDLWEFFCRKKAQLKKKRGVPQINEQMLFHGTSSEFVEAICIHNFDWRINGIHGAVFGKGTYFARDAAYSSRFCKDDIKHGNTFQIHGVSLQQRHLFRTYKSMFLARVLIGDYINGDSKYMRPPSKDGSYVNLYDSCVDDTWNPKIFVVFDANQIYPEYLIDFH

[2] = biological target: T2, Poly [ADP-ribose] polymerase tankyrase-1 (Homo sapiens) (UniProt O95271); test: as §1, with “GST-tagged” for “GST tagged”, “TNKS1 (1001” for “PARP11 (8”, “1327” for “338”, “baculovirus-infected” for “baculovirus infected”
T2 sequence (whole entry): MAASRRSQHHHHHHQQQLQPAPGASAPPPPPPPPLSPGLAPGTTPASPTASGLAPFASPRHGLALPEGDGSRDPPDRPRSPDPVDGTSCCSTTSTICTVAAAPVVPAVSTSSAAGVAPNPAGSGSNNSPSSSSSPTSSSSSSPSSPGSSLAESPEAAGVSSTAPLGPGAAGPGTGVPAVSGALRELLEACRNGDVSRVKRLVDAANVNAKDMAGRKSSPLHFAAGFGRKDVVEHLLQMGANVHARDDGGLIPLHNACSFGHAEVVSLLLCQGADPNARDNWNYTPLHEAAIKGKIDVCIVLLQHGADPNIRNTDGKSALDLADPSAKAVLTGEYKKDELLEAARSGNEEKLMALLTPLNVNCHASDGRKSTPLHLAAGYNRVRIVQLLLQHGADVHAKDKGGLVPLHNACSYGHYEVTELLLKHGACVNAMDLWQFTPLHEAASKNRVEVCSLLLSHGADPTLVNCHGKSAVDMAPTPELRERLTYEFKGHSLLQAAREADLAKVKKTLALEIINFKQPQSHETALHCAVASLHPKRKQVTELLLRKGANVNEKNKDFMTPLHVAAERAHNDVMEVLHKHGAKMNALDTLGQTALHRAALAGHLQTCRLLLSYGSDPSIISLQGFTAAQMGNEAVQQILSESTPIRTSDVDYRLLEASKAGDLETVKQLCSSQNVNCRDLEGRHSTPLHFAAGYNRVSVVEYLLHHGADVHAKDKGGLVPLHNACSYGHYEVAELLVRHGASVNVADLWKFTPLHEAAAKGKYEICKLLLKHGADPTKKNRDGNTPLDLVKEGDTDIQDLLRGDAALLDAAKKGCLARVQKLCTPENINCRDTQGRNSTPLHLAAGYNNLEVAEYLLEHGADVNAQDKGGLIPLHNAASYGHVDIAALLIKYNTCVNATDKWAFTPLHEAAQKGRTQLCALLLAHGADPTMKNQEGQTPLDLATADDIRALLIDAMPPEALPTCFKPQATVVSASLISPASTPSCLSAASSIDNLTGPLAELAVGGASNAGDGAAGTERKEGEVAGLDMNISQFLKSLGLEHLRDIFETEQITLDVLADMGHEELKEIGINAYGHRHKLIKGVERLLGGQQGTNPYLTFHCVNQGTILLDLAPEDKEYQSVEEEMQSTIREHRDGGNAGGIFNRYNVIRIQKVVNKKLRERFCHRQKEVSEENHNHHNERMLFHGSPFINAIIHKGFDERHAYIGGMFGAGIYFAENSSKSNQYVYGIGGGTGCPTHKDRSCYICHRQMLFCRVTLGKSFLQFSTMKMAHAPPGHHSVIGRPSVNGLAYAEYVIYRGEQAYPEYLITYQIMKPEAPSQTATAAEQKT

[3] = biological target: T3, Protein mono-ADP-ribosyltransferase PARP3 (Homo sapiens) (UniProt Q9Y6F1); test: as §1, with “tagged full length” for “tagged”, “PARP3” for “PARP11 (8 to 338 residues)”
T3 sequence (whole entry): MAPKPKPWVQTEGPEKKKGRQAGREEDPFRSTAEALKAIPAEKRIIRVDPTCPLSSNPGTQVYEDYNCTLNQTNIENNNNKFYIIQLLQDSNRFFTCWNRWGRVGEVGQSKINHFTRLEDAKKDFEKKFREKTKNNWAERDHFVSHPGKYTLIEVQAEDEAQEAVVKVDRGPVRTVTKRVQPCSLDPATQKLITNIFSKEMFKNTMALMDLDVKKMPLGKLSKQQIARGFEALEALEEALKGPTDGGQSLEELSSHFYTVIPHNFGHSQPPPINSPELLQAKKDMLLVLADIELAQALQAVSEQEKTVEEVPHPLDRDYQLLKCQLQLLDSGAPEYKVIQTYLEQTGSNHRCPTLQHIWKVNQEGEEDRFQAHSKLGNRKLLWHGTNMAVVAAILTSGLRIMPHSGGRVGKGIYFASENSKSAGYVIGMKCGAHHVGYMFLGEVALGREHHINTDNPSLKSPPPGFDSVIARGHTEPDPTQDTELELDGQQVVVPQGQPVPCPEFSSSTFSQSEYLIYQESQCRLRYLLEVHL

| inhibition [1] [%] | inhibition [2] [%] | inhibition [3] [%] | Structure (SMILES) |
| --- | --- | --- | --- |
| > 50 | > 50 | 22 | CC1(CNC(=O)COc2cccc3c2CCCC3=O)CCN(C(=O)CCc2nc3ccccc3[nH]c2=O)CC1 |
| < 25 | < 25 | < 25 | CNC(=O)[C@H](CNC(=O)CCc1nc2ccccc2[nH]c1=O)NC(=O)c1ccc2c(c1)CCCC2=O |
